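Where inhibition never reached the appropriate level, the endpoint shown equals the highest concentration tested. Otherwise, values were interpolated linearly from a five-concentration, 48-hour dose response in 96-well plates. At the GI50, growth is halved.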 The source made the active and inactive calls. Cut-off read from the data, not from the text of the source: active = GI50 up to about 1.1 µM and inactive = higher.
Assays:
Test in all cases: growth of human tumour cells (NCI), 48 h
786-0 = tested on: 786-0
CCRF-CEM = tested on: CCRF-CEM
EKVX = tested on: EKVX
HCC 2998 = tested on: HCC 2998
HOP-92 = tested on: HOP-92
HT-29 = tested on: HT-29
IGROV-1 = tested on: IGROV-1
Malme-3M = tested on: Malme-3M
SF-295 = tested on: SF-295
SK-MEL-5 = tested on: SK-MEL-5
SK-OV-3 = tested on: SK-OV-3
SN12C = tested on: SN12C
SNB-19 = tested on: SNB-19
UACC-257 = tested on: UACC-257
UO-31 = tested on: UO-31

Measured: GI50

C#CC(C)(C)Oc1cc(O)c2c(=O)c3ccccc3n(C)c2c1
inactive: 786-0 53.3 µM | CCRF-CEM 45.2 µM | EKVX > 100 µM | HCC 2998 77.4 µM | HOP-92 > 100 µM | HT-29 34 µM | IGROV-1 > 100 µM | Malme-3M > 100 µM | SF-295 > 100 µM | SK-MEL-5 > 100 µM | SK-OV-3 > 100 µM | SN12C > 100 µM | SNB-19 > 100 µM | UACC-257 > 100 µM | UO-31 > 100 µM

CCOC(=O)C1C(c2ccc(Cl)cc2Cl)NC(c2ccc(C)cc2)C(C(=O)OC)S1(=O)=O (stereo unspecified)
inactive: 786-0 60.5 µM | CCRF-CEM > 100 µM | EKVX 85.9 µM | HCC 2998 > 100 µM | HOP-92 12 µM | HT-29 > 100 µM | IGROV-1 > 100 µM | Malme-3M > 100 µM | SF-295 > 100 µM | SK-MEL-5 87.5 µM | SK-OV-3 > 100 µM | SNB-19 > 100 µM | UACC-257 22.8 µM | UO-31 37.9 µM

O=[N+]([O-])c1ccc(N=P(c2ccccc2)(c2ccccc2)c2ccccc2)n2nnnc12
inactive: 786-0 28.1 µM | CCRF-CEM 68.9 µM | EKVX 58.7 µM | HOP-92 22.2 µM | HT-29 > 100 µM | IGROV-1 > 100 µM | Malme-3M 50.8 µM | SF-295 29 µM | SK-MEL-5 67 µM | SK-OV-3 46.1 µM | SN12C 82.4 µM | SNB-19 33.4 µM | UACC-257 85.9 µM | UO-31 78.7 µM

O=C(Nc1ccccc1C(=O)NC(=O)c1ccccc1NC(=O)c1ccccc1)c1ccccc1
inactive: 786-0 12 µM | CCRF-CEM 3.91 µM | EKVX 8.71 µM | HOP-92 1.99 µM | HT-29 2.22 µM | IGROV-1 1.86 µM | Malme-3M 3.34 µM | SF-295 10.8 µM | SK-MEL-5 2.9 µM | SN12C 4.51 µM | SNB-19 7.36 µM | UACC-257 1.86 µM

COc1ccc2nc3cc(Cl)ccc3c(NCCC[N+](C)(C)CCCCCCCCCCCCCCCC[N+](C)(C)CCCNc3c4ccc(Cl)cc4nc4ccc(OC)cc34)c2c1
inactive: 786-0 3.63 µM | CCRF-CEM 1.66 µM | EKVX 3.21 µM | HCC 2998 2.84 µM | HT-29 1.61 µM | IGROV-1 2.7 µM | Malme-3M 2.24 µM | SF-295 6.03 µM | SK-MEL-5 2 µM | SK-OV-3 4.33 µM | SN12C 3.22 µM | SNB-19 2.69 µM | UACC-257 2.43 µM | UO-31 > 10 µM

COc1ccc2c(c1)[n+]([O-])c(/C(C)=N/NC(=O)c1ccccc1O)c(C)[n+]2[O-]
inactive: 786-0 > 100 µM | CCRF-CEM > 100 µM | EKVX > 100 µM | HCC 2998 > 100 µM | HOP-92 > 100 µM | HT-29 > 100 µM | IGROV-1 > 100 µM | Malme-3M > 100 µM | SF-295 > 100 µM | SK-MEL-5 > 100 µM | SK-OV-3 > 100 µM | SN12C > 100 µM | SNB-19 > 100 µM | UACC-257 > 100 µM | UO-31 > 100 µM

O=C(NCCCCCCCCCCCCNC(=O)c1cccc2ccccc12)c1cccc2ccccc12
inactive: 786-0 > 44.8 µM | CCRF-CEM > 56.2 µM | EKVX > 62.8 µM | HCC 2998 > 100 µM | HOP-92 > 52.2 µM | HT-29 > 100 µM | IGROV-1 > 55.3 µM | Malme-3M > 92.3 µM | SF-295 > 50.4 µM | SK-MEL-5 > 100 µM | SK-OV-3 > 47.5 µM | SN12C > 68.4 µM | SNB-19 45.6 µM | UACC-257 > 100 µM | UO-31 > 42.7 µM

N#Cc1nc(Nc2ccc([N+](=O)[O-])cc2)sc1N
inactive: 786-0 21.2 µM | CCRF-CEM 3.4 µM | EKVX 32.2 µM | HCC 2998 11.7 µM | HOP-92 27.3 µM | HT-29 33.5 µM | IGROV-1 23.4 µM | Malme-3M 23.9 µM | SF-295 26.5 µM | SK-MEL-5 3.79 µM | SK-OV-3 26.9 µM | SN12C 7.8 µM | SNB-19 17.7 µM | UACC-257 18.6 µM | UO-31 7.38 µM

C=C1C(=O)OC2C/C(C)=C/CC/C(C)=C/CCC3(COC(C)=O)OC3CC12 (stereo unspecified)
inactive: 786-0 5.65 µM | CCRF-CEM 2.7 µM | EKVX 19.6 µM | HCC 2998 8.85 µM | HT-29 8.32 µM | IGROV-1 16.7 µM | Malme-3M 12.9 µM | SF-295 15.3 µM | SK-MEL-5 14.9 µM | SK-OV-3 13.7 µM | SN12C 15.6 µM | SNB-19 16.5 µM | UACC-257 15.4 µM | UO-31 12.7 µM

COc1ccccc1NC(=O)NS(=O)(=O)c1ccccc1
inactive: 786-0 > 100 µM | EKVX 88.7 µM | HCC 2998 > 100 µM | HOP-92 > 100 µM | HT-29 > 100 µM | Malme-3M > 100 µM | SF-295 > 100 µM | SK-MEL-5 > 100 µM | SN12C > 100 µM | SNB-19 > 100 µM | UACC-257 > 100 µM | UO-31 > 100 µM

O=C1C2C3C=C4c5ccccc5N(c5ccccc5)C4([C@@H]2C(=O)N1c1ccc(F)cc1)[C@H]1C(=O)N(c2ccc(F)cc2)C(=O)[C@@H]31 (stereo partly specified)
inactive: 786-0 > 100 µM | CCRF-CEM > 100 µM | EKVX > 100 µM | HCC 2998 > 100 µM | HOP-92 > 100 µM | Malme-3M > 100 µM | SF-295 > 100 µM | SN12C 82 µM | SNB-19 > 100 µM | UACC-257 > 100 µM | UO-31 20.9 µM

N#Cc1cccc2c1Nc1ccccc1S2
inactive: 786-0 55.1 µM | CCRF-CEM > 100 µM | EKVX > 100 µM | HCC 2998 > 100 µM | HOP-92 20.2 µM | HT-29 > 100 µM | IGROV-1 48.9 µM | Malme-3M > 100 µM | SF-295 35.2 µM | SK-MEL-5 > 100 µM | SK-OV-3 > 100 µM | SN12C > 100 µM | SNB-19 37.8 µM | UACC-257 > 100 µM | UO-31 > 100 µM

C=C1CC2OC(=O)C(=C)C2C(O)C2C(=C)CCC12 (stereo unspecified)
inactive: 786-0 13.4 µM | CCRF-CEM 2.24 µM | EKVX 6.98 µM | HCC 2998 10.2 µM | HOP-92 2.06 µM | HT-29 3.78 µM | IGROV-1 17.7 µM | Malme-3M 15 µM | SF-295 10.9 µM | SK-MEL-5 12.2 µM | SK-OV-3 12.4 µM | SN12C 5.73 µM | SNB-19 16.2 µM | UACC-257 4.2 µM | UO-31 16.1 µM

COc1c(I)c(OC)c2c(c1I)O[C@@H]1OCC[C@H]21
inactive: 786-0 34.8 µM | CCRF-CEM 27.5 µM | EKVX 74.8 µM | HCC 2998 30.5 µM | HOP-92 22.7 µM | HT-29 39.4 µM | IGROV-1 37.6 µM | Malme-3M 34 µM | SF-295 38.2 µM | SK-MEL-5 13.7 µM | SK-OV-3 31.8 µM | SN12C 31.3 µM | SNB-19 77.1 µM | UACC-257 26.1 µM | UO-31 22.4 µM

COc1cc(Nc2cnc3cc(C(F)(F)F)ccc3n2)cc(OC)c1OC
inactive: 786-0 > 100 µM | CCRF-CEM > 100 µM | EKVX > 100 µM | HCC 2998 > 100 µM | HOP-92 > 100 µM | HT-29 > 100 µM | Malme-3M > 100 µM | SF-295 > 100 µM | SK-OV-3 > 100 µM | SN12C > 100 µM | SNB-19 > 100 µM | UACC-257 > 100 µM | UO-31 > 100 µM

Cc1ccc(S(=O)(=O)NC(=O)C#CCOC2CCCCO2)cc1 (stereo unspecified)
inactive: 786-0 > 100 µM | CCRF-CEM > 100 µM | EKVX > 100 µM | HCC 2998 > 100 µM | HOP-92 > 100 µM | HT-29 > 100 µM | Malme-3M > 100 µM | SF-295 > 100 µM | SK-MEL-5 > 100 µM | SN12C > 100 µM | SNB-19 > 100 µM | UACC-257 > 100 µM | UO-31 > 100 µM

CC(C)N(C(=O)C12C3C4C1C1C2C3C41C(=O)C(C)(C)C)C(C)C (stereo unspecified)
inactive: 786-0 > 100 µM | CCRF-CEM 16.1 µM | EKVX > 100 µM | HCC 2998 > 100 µM | HT-29 76.7 µM | IGROV-1 > 100 µM | Malme-3M > 100 µM | SF-295 > 100 µM | SK-MEL-5 38.8 µM | SK-OV-3 > 100 µM | SN12C > 100 µM | SNB-19 > 100 µM | UACC-257 95.3 µM | UO-31 46.1 µM

CC1=C(C(=O)NCc2ccccc2)C(/C=C/c2ccccc2)C(C(=O)NCc2ccccc2)=C(C)N1
inactive: 786-0 > 100 µM | CCRF-CEM > 100 µM | EKVX > 100 µM | HCC 2998 > 100 µM | HOP-92 > 100 µM | HT-29 > 100 µM | IGROV-1 > 100 µM | Malme-3M > 100 µM | SF-295 > 100 µM | SK-MEL-5 > 100 µM | SN12C > 100 µM | SNB-19 > 100 µM | UACC-257 > 100 µM | UO-31 > 100 µM

O=C(c1ccccc1)c1nc2ccc(Cl)cc2c2c1Cc1ccccc1-2
inactive: 786-0 > 100 µM | EKVX > 100 µM | HCC 2998 > 100 µM | IGROV-1 > 100 µM | Malme-3M > 100 µM | SF-295 > 100 µM | SK-MEL-5 > 100 µM | SN12C > 100 µM | SNB-19 > 100 µM | UACC-257 > 100 µM | UO-31 > 100 µM

Reference: ChEMBL document CHEMBL1201862, “PubChem BioAssay data set” (2004)
